Two molecules from ChEMBL document CHEMBL5042541 (J Med Chem, 2022) can be followed below.

Series [1] in a line: Lipophilicity, logD of compound at pH 7.5. Format: physicochemical. Particulars: buffer.
For another series, the target named is Keap1/Nrf2 (Homo sapiens, UniProt Q14145).
Keap1/Nrf2, sequence (Q16236 whole entry): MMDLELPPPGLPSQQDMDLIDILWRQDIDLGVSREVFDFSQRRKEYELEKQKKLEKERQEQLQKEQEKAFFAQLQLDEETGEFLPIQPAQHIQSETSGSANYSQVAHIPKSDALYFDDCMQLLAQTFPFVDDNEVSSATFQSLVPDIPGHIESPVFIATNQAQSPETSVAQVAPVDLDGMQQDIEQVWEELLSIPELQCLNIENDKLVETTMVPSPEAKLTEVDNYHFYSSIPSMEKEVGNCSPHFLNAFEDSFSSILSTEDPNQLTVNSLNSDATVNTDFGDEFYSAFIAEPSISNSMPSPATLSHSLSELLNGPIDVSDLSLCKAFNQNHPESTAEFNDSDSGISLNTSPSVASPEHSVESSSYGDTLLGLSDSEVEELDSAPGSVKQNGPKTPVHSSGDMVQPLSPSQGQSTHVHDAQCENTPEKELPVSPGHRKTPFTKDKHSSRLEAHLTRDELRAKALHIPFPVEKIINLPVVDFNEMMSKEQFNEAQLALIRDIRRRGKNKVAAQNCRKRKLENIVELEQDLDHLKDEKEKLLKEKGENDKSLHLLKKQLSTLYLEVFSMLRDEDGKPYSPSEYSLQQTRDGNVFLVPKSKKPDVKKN
Keap1/Nrf2, sequence (Q14145 whole entry): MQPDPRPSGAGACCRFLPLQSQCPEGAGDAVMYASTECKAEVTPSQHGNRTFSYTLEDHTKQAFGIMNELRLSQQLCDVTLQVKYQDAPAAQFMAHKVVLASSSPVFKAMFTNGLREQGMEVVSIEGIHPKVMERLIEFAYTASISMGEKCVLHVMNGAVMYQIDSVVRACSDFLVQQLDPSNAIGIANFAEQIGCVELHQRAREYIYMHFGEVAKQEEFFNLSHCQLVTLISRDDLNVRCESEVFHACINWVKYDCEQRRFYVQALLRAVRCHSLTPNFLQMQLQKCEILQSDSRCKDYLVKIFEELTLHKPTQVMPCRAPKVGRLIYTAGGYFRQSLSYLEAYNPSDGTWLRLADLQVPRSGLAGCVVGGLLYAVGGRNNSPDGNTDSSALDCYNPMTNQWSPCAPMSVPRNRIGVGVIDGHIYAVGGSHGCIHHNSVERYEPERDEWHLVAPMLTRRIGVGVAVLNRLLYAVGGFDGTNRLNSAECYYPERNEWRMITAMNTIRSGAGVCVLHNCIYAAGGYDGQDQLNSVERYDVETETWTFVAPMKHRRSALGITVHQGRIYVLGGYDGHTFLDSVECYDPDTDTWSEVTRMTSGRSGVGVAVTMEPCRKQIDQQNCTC

For `CC(=O)N1CCC[C@H]1C(=O)N[C@@H]1COC(=O)c2ccccc2CSC[C@H](C(=O)N(C)C)NC1=O`, the logD – broadly, lipophilicity at a set pH, counting ionised and neutral species – in series [1] is 0.43.

With `CC(=O)N1CCC[C@H]1C(=O)N[C@@H]1CNC(=O)c2ccccc2COC[C@H](C(=O)N(C)C)NC1=O`, at Keap1/Nrf2, the Kd (in general, the free concentration of one partner at which half of the binding sites on the other are occupied at equilibrium, for simple one-to-one binding) is over 500 µM.
